Measured values from patent publication US11020372B2, “Dietary and natural product management of negative side effects of cancer treatment” (UNIVERSITY OF FLORIDA RESEARCH FOUNDATION, INC., priority 2015, dated 2021).

What was measured:
[1] = in vivo; cited from earlier work
neonatal rat = settings: cited from earlier work
[2] = test system: patients with type 2 diabetes; settings: provided by oral intake of 68 grams of broccoli sprouts; cited from earlier work
Animals [3] = assay: Chemotherapy-induced anemia (CBC: red blood cells, hematocrit, hemoglobin); settings: for anemia: level of red blood cell count, hemoglobin and hematocrit, chemotherapy agent alone: 20 mg/kg TMZ, 100 mg/kg 5-FU, 40 mg/kg oxaliplatin, two to four weeks; for hemoglobin level, chemotherapeutic agent alone: 100 mg/kg 5-FU or 40 mg/kg oxaliplatin
Method: Animals were treated with three different chemotherapy agents inducing anemia (20 mg/kg TMZ, 100 mg/kg 5-FU, 40 mg/kg oxaliplatin). After two to four weeks of treatments blood was collected via retro-orbital puncture from the different experimental groups. Blood samples were processed for CBC.

Mice [4] = assay: Von Frey test of mechanosensitivity (chemotherapy-induced peripheral neuropathy); settings: Von Frey filament 4 g; cumulative 25 mg/kg Paclitaxel, 40 mg/kg Oxaliplatin
Method: Mechanosensitivity was compared between the different experimental groups. Von Frey test filament (4 g) was pressed to the plantar surface of the hindpaw until the filament just bent.
Animals were also tested for neuropathic pain using the Von Frey Test where the sensitivity of the animals to mechanical stimulus is measured. Similar to the cold allodynia assay, the animals were tested after cumulative doses of 25 mg/kg paclitaxel and 40 mg/kg oxaliplatin. Von Frey test filament (4 g) was pressed to the plantar surface of the hindpaw until the filament just bent. The percent positive response (i.e. paw withdrawal) was recorded.

Mice [5] = assay: Paclitaxel-induced nephrotoxicity and hepatotoxicity (kidney and liver mass); type: in vivo; settings: Paclitaxel [5 mg/kg], 3-4 weeks of treatment
Method: Targeted toxicity of the chemotherapeutic agent Paclitaxel was assessed after 3-4 weeks of treatment via measuring the mass of the kidneys.
Toxicity was assessed after 3-4 weeks of treatment via comparing the mass of the liver.
After four weeks of treatments, the organs were harvested and their mass determined.

[6] = test system: rats, guinea pigs and monkeys; settings: cited from earlier work
healthy subjects = settings: 5000 to 12,000 mg/day; cited from earlier work
Animals [7] = assay: Chemotherapy-induced leukopenia (CBC: white blood cells, neutrophils); type: in vivo; settings: 20 mg/kg TMZ, 100 mg/kg 5-FU; two weeks
Method: Animals were treated with different chemotherapy agents inducing leukopenia (20 mg/kg TMZ, 100 mg/kg 5-FU). […] Blood samples were processed for CBC.

neural stem cells [8] = assay: Neurosphere assay of periventricular cells from treated animals; type: in vivo, Mice; settings: TMZ [20 mg/kg] or 5-FU [100 mg/kg] for two weeks
Method: A] Periventricular cells from the brains of animals treated with the indicated treatments were isolated and cultured in the neurosphere assay at clonal density to quantify clonogenic frequency. […] Chemotherapies induced a decline of neural stem cell activity seen by decreased neurosphere formation, which can be improved when combined with our treatment, **, ***, p<0.01, p<0.001, one-way ANOVA. B-C] […] D-E] NSC activity was also measured in the hippocampus, region of the brain involved in cognition.
Mice were fed with control diet or MCT/LC/Curcumin/EGCG/SFN diet. Each dietary group was treated with TMZ [20 mg/kg] or 5-FU [100 mg/kg] for two weeks, after which point brains were harvested and the cells from the periventricular region were cultured at clonal density in the neurosphere assay during one passage (7-14 days) to quantify the sphere forming frequency indicating neural stem cells occurrence in the brains of animals treated with the different treatments.

neural stem cells [9] = assay: BrdU immunoreactivity of neural stem cells in sub-ventricular area and hippocampus; type: in vivo, Mice
Method: A] Periventricular cells from the brains of animals treated with the indicated treatments were isolated and cultured in the neurosphere assay at clonal density to quantify clonogenic frequency. […] B-C] […] D-E] NSC activity was also measured in the hippocampus, region of the brain involved in cognition.
A cohort of animals received three injections of BrdU [50 mg/kg] over a 72-hour time period before to be euthanized. Brains were removed, fixed, sectioned and BrdU antibodies used to identify cells that were in S-phase during the 72 hour injection period.

dogs = settings: 500 mg/kg/day, divided dosage, pre-fed dogs, 13 weeks; cited from earlier work
rodents = settings: oral doses as high as 500 mg/kg in rodents; cited from earlier work
[10] = neonatal rat hypoxic-ischemic injury

C[S+]([O-])CCCCN=C=S (centres unmarked) [SFN, sulforaphane]
elimination [1]: long terminal elimination phase
time to peak plasma levels [1]: ≤ 2 h
infarct ratio (neonatal rat; 24 hours after hypoxic ischemia): reduced infarct ratio
expression of the Nrf2 antioxidative transcription factor in the brain (neonatal rat; [10]): increased the expression of the Nrf2
number of apoptotic cells (neonatal rat; [10]): significantly decreased the number of apoptotic cells
safe non-toxic dose [2]: 100 mg

O=C1[O][Pt]2([NH][C@@H]3CCCC[C@H]3[NH]2)[O]C1=O [oxaliplatin, Oxaliplatin]
anemia: level of red blood cell count, hemoglobin and hematocrit, chemotherapy agent alone (Animals [3]): induced anemia
hemoglobin level, chemotherapeutic agent alone (Animals [3]): significantly diminished
mechanosensitivity (percent positive response, paw withdrawal), chemotherapy alone, FIG. 12 (Mice [4]): increased

CC(=O)O[C@H]1C(=O)[C@@]2(C)[C@H]([C@H](OC(=O)c3ccccc3)[C@]3(O)C[C@H](OC(=O)[C@H](O)[C@@H](NC(=O)c4ccccc4)c4ccccc4)C(C)=C1C3(C)C)[C@]1(OC(C)=O)CO[C@@H]1C[C@@H]2O [Paclitaxel]
mass of the kidneys, drug alone (Mice [5]): significant diminution of the kidney weight
mass of the liver, drug alone (Mice [5]): significant liver enlargement

COc1cc(/C=C/C(=O)CC(=O)/C=C/c2ccc(O)c(OC)c2)ccc1O [curcumin, Curcumin]
toxicity at high doses in preclinical models [6]: safe
adverse side effects in dose escalation (healthy subjects): no significant adverse side effects

O=c1[nH]cc(F)c(=O)[nH]1 [5-FU, Fluorouracil]
anemia: level of red blood cell count, hemoglobin and hematocrit, chemotherapy agent alone (Animals [3]): induced anemia
hemoglobin level, chemotherapeutic agent alone (Animals [3]): significantly diminished
leukopenia: level of white blood cell and neutrophil count, chemotherapy agent alone (Animals [7]): induced leukopenia
sphere forming cells, chemotherapy agent alone (neural stem cells [8]): decreased number of sphere forming cells
NSC activity (BrdU immunoreactivity) in the sub-ventricular area (SVZ), single treatment versus control (neural stem cells [9]; diet alone or 5-FU alone): reduced level of BrdU+ve cells
number of BrdU-immunoreactive proliferating neural stem cells relative to controls (neural stem cells [9]; subventricular area and hippocampus, three BrdU injections [50 mg/kg] over 72 hours): less number of proliferating neural stem cells

Epigallocatechin-3-gallate [EGCG]
adverse events or toxicity (dogs): no adverse events or toxicity
genotoxic or short term toxicity (rodents): no genotoxic or short term toxicity

Cn1nnc2c(C(N)=O)ncn2c1=O [TMZ, Temozolomide]
leukopenia: level of white blood cell and neutrophil count, chemotherapy agent alone (Animals [7]): induced leukopenia
sphere forming cells, chemotherapy agent alone (neural stem cells [8]): decreased number of sphere forming cells
